Laboratory results as given in PMC3898838, “Design, Synthesis, and Biological Evaluation of an Allosteric Inhibitor of HSET that Targets Cancer Cells with Supernumerary Centrosomes” (Chemistry & Biology, 2013).

Test system: NHDF cells
Assay: Immunofluorescence, mitotic spindle morphology
Type: cell-based, human
Details: 100 μM and 200 μM, 2.5 hr
Excerpt: Using IF, we next examined the mitotic phenotypes induced by CW069 in N1E-115 and NHDF cells, with a strong focus on centrosome numbers and mitotic spindle morphology. Antibodies against α-tubulin, CDK5RAP2, and DAPI were employed to visualize MTs, centrosomes, and DNA, respectively. We hypothesized that small-molecule inhibition of HSET would give rise to mitotic spindle defects similar to those reported after HSET knockdown by siRNA transfection ([Kwon et al., 2008]), and this was indeed the case. […] After treatment, the N1E-115 cells formed multipolar spindles due to a lack of centrosome clustering, consistent with HSET inhibition in cells with supernumerary centrosomes (Figure 4C).
[…] Prewarmed 4% paraformaldehyde in PBS was then added to each well to fix the cells before washing with PBS. Permeabilization and blocking was performed by incubating the slides with 1% BSA, 0.3% Triton X-100, 5% goat serum in PBS (PBS/B/0.3%T+5%GS) for 1 hr while shaking them at room temperature (RT). The slides were incubated with primary antibody solutions (mouse monoclonal anti-α-Tubulin [catalog number T9026; Sigma-Aldrich] and rabbit anti-CDK5RAP2 [catalog number A300-554A; Bethyl Laboratories]) at 4°C for 16 hr. […]

With O=C(O)c1cc(I)ccc1NC(=O)[C@H](Cc1ccccc1)NCc1ccccc1 [CW069] the mitotic spindle morphology was “unchanged compared with control”.
